According to patent publication US9963485B2, “Cycloheptapeptide agents for treatment of cancer and obesity diseases” (Hong Kong Baptist University, priority 2012, dated 2018):
*1 amine or outer side, *2 acyl side, *3 side chain or, on linkers, in order; H or OH if unused. Where a SMILES comes first, the peptide text is derived from it. [ ]: non-standard residue; d: D form. X2 = C[C@@H]1C([C@@H](N[*:1])C(=O)[*:2])[C@H]1C; X1 = C[C@@H]1C([C@H](N[*:1])C(=O)[*:2])[C@H]1C; X3 = CC1C(C)C1C(N[*:1])C(=O)[*:2]; NMeL = CN[CH](CC(C)C)C(=O)O; NMeA = CN[CH](C)C(=O)O; dNMeA = CN[C@H](C)C(=O)O

Columns and labels:
[1] = test system: oral epidermoid (KB) carcinoma cell line; assay: Cytotoxicity assay (sulforhodamine B), KB; assay type: cell-based, human; conditions: KB cells
Protocol: (§4) Pure compounds are evaluated against the human cancer cell lines comprising our cytotoxicity screening panel. Cytotoxicity assays involving oral epidermoid (KB), colon (HCT116), prostate (LNCaP), breast (MCF7), Hela (cervical), leukemia (HL-60) melanoma (A375) and lung (A549) carcinoma cell lines, are performed using sulforhodamine B according to established protocols (Zhang et al., Journal of Medicinal Chemistry 2006; 49: 693-708; and Jutiviboonsuk A et al., Phytochemistry 2005; 66: 2745-2751.). KB and A375 cells are maintained in DMEM (Dulbecco's modified Eagle medium) medium. LNCaP and HL60 cells are maintained in RPMI1640 medium with hormone-free 10% heat-activated FBS (fetal bovine serum) supplemented with 0.1 nM testosterone. MCF7 and Hela cells are maintained and assayed in MEME (Minimum Essential Medium Eagle) medium containing 10 mg/L of insulin. HCT116 cells are maintained in McCoy's 5A medium supplemented with 10% fetal bovine serum. A549 cells are maintained in RPMI-1640 medium supplemented with 10% FCS. Serial dilutions of the compounds are prepared using 10% aqueous DMSO as solvent. The 190 μL cell suspension (3×10^4 cells in 1 ml media) is incubated with 10 μL sample solutions, in triplicate, in 96-well tissue culture plate at 37° C. in a humidified atmosphere of 5% CO2 in air for 72 hours. 10 μL 10% aqueous DMSO is used as control group. Then the cells are fixed to plastic substratum by the addition of 100 μL cold 20% aqueous trichloroacetic acid and washing with water after incubation at 4° C. for 30 min. After staining cells with 100 μL of 0.4% sulforhodamine B in 1% aqueous AcOH for 30 min, unbound dye is removed by rinsing with 1% aqueous AcOH. The bound dye is solubilized with 200 μL 10 mM unbuffered Tris base, pH 10, and the optical density is measured at 515 nm using an ELISA plate reader. The average data are expressed as a percentage, relative to the control. The IC50 values, the dose that inhibit cell growth by 50%, are calculated using nonlinear regression analysis (percent survival versus concentration).

[2] = test system: lung (A549) carcinoma cell line; assay: cells; assay type: cell-based, human
Protocol: as §4

[3] = test system: breast (MCF7) carcinoma cell line; assay: cells; assay type: cell-based, human
Protocol: as §4

[4] = test system: panel of cancer cell lines comprising KB, HCT116, LNCaP, A549, MCF7, HL60, Hela and A375
[5] = test system: colon (HCT116) carcinoma cell line; assay: Cytotoxicity assay (sulforhodamine B), HCT116; conditions: read-out: Cytotoxic activity IC50, HCT116; HCT116 cells, 72 hours
Protocol: as §4

[6] = test system: lung cancer cell line (A549); assay: Hollow fiber in vivo test, A549; set-up: species or system mouse
Protocol: (§1) Hollow fiber tests are well known in the art for providing preliminary indications of therapeutic efficacy (Mi et al. J. Nat. Prod. 2002, 65: 842-850). In hollow fiber tests, human tumor cell lines currently employed in cell cultures are grown inside semipermeable hollow fibers to form heterogeneous solid tumor models. […] By evaluating the test compound's inhibition of tumor cell growth versus the toxic response in the host, a preliminary estimate of therapeutic efficacy is provided in a cost- and time effective manner.

[7] = test system: colon cancer cell line (HCT116); assay: Hollow fiber in vivo test, HCT116; set-up: species or system mouse
Protocol: as §1

[8] = test system: breast cancer cell line (MCF7); assay: Hollow fiber in vivo test, MCF7; set-up: species or system mouse
Protocol: as §1

[9] = test system: melanoma cancer cell line (A375); assay: Hollow fiber in vivo test, A375; set-up: species or system mouse
Protocol: as §1

[10] = test system: cervical cancer cell line (Hela); assay: Hollow fiber in vivo test, Hela; set-up: species or system mouse
Protocol: as §1

HCT116-tumor xenograft = assay: HCT116 xenograft mouse model; assay type: in vivo; conditions: for Inhibition of HCT116 tumor growth (excised tumor weights): every other day for 21 days
Protocol: The treatment started on the 6th day when the HCT116-tumor reached approximately 100 mm^3 (L×W×W). […] All mice died for the maytansine group after the initial two treatments at the dose of 0.1 mg/kg, indicating the highly toxicity of maytansine.

MCF7-tumor xenograft = assay: MCF7 xenograft mouse model; conditions: for Inhibition of MCF7 tumor growth (excised tumor weights): twice a week for 3 weeks
Protocol: The treatment started on the 12th day when the MCF7-tumor size reached approximately 100 mm^3 (L×W×H). Two doses of MV-A (1.0 and 2.0 mg/kg), paclitaxel (5 mg/kg), and vehicle were administered via i.p. (intraperitoneal), i.v. (intravenous), or oral respectively, to the tumor-bearing mice twice a week for 3 weeks ([…]).
Antitumor animal study. All animal studies were approved and performed according to Animal Care and Use Guidelines of the Animal Ethics Committee at Hong Kong Baptist University and performed following Animal Care and Use guidelines set by NIH (National Institute of Health, USA). BALB/c nude mice, SPF class, male or female, 5-6 weeks old, were purchased from Charles River Laboratories. Before the experiment, it is one week of acclimatization to SPF class laboratory conditions. MV-A is tested for its anticancer activity against HCT116 and MCF7 cancer cells using a number of nude mice (Balc/nu/nu, female) in comparison of paclitaxel and maytansine. HCT116 or MCF7 cancer cells are subcutaneously implanted with 5×10^6 cells in the rear flank of each mouse. Female mice receiving MCF-7 cells are implanted with an s.c. pellet of 17β-estradiol (0.72 mg/pellet) a few days prior to injection to induce tumors. […] The mice are divided into 5 groups for HCT116 cancer cells: one high dose (1.0 mg/kg: 10 mice) group of MV-A, one low dose (0.5 mg/kg: 10 mice) group of MV-A, one dose (5.0 mg/kg: 10 mice) of paclitaxel, one dose of maytansine (0.1 mg/kg) and one dose of vehicle (negative control: 10 mice). The mice are then divided into 4 groups for MCF7 cancer cells: one high dose (2.0 mg/kg: 10 mice) group of MV-A, one low dose (1.0 mg/kg: 10 mice) group of MV-A, one dose (5.0 mg/kg: 10 mice) of paclitaxel, and one dose of vehicle (negative control: 10 mice). Every other day administration via i.p. (intraperitoneal), i.v. (intravenous), or oral, respectively are scheduled for 21 days for the HCT116 groups. Twice a week injections administered via i.p. (intraperitoneal), i.v. (intravenous), or oral, respectively are scheduled for […] for the MCF7 groups. Weights of mice and tumor diameters are measured twice a week until the end of the experiment. The tumor size in mm^3 was calculated by the formula: tumor size=length×width×height (L×W×H).

3T3-L1 murine adipocytes [11] = assay: 3T3-L1 fat accumulation (triglyceride) assay; assay type: cell-based; conditions: differentiated 3T3-L1 adipocytes, 7 days, read-out: Anti-obesity activity (fat accumulation) EC50
Protocol: (§2) MV-A, MV-B, MV-C and MV-D are evaluated for their anti-obesity effects in 3T3-L1 murine adipocytes. 3T3-L1 cells are cultured in the presence of insulin to induce adipocyte differentiation.
(§3) Pure compounds are evaluated against 3T3-L1 cell line for their potential anti-obesity activity. […] After the cells reach 100% confluence, the culture medium is changed to a differentiation DMEM medium containing 10% FCS, […], 0.5 mM 3-isobutyl-1-methylxanthine (IBMX), 90 U/mL penicillin, […] and 10 μg/mL insulin for induction of the adipocyte form of the 3T3-L1 cells. After 2 days, the differentiation medium is changed back to the normal DMEM medium and refreshed with the normal medium every 2 days. After incubation of additional 7 days, the cells are seeded in two sets of 96-well plates (about 10,000 cells per well). The test compounds in different concentrations are then added to the wells with 0.5% aqueous DMSO as control group. After incubation of 7 days, the differentiated 3T3-L1 adipocytes are treated with 2% Triton-X 100 ([…]) for 30 min at room temperature followed by sonication for 1 min. Fat accumulation is determined by measuring the liberated triglyceride using a Wato Triglyceride E-test Kit with the absorbance at 630/690 nm. The fat-accumulation rate is calculated as a percentage of the DMSO control. […] The cell viability of the differentiated 3T3-L1 adipocytes in another 96-well plate is treated with a Wako Cell Counting Kit-8 Test and measured with the absorbance at 450 nm. The cell viability is calculated as a percentage of the control.

3T3-L1 murine adipocytes [12] = assay: 3T3-L1 adipocyte cell viability; assay type: cell-based; conditions: differentiated 3T3-L1 adipocytes
Protocol: as §2, §3

[13] = Body weight of mice after drug treatment; conditions: 1 mg/kg and 2 mg/kg

CC(C)CC1NC(=O)C(C)N(C)C(=O)C(C)N(C)C(=O)C(C2C(C)C2C)NC(=O)C(CC(C)C)N(C)C(=O)C(C)N(C)C(=O)C(CC(C)C)NC1=O (stereo not shown) [Compound 3] (cyclo([X3][NMeA][NMeA]LL[NMeA][NMeL]); configuration not given here)
IC50 ([1]; 72 hours, read-out: Cytotoxic activity IC50, KB): 12.5 nM
IC50 ([2]; 72 hours, read-out: Cytotoxic activity IC50, A549): 51.8 nM
IC50 ([3]; 72 hours, read-out: Cytotoxic activity IC50, MCF7): 26.6 nM
Reduction in activity in comparison with 1 ([4]; compound with only one DMCPA residue versus 1): at least 100 times
IC50 [5]: 43.5 nM

CC[C@]1(O)C[C@@H]2CN(CCc3c([nH]c4ccccc34)[C@@](C(=O)OC)(c3cc4c(cc3OC)N(C)[C@H]3[C@@](O)(C(=O)OC)[C@H](OC(C)=O)[C@]5(CC)C=CCN6CC[C@]43[C@@H]65)C2)C1 [Vinblastine, reference compound]
Cytotoxic activity IC90, KB [1]: 10.1 nM
IC90 ([2]; Homo sapiens, read-out: Cytotoxic activity IC90, A549): > 40 nM
IC90 ([3]; Homo sapiens, read-out: Cytotoxic activity IC90, MCF7): > 50 nM

CC(C)C[C@H]1NC(=O)[C@@H](C)N(C)C(=O)[C@H](C)N(C)C(=O)[C@H](C2[C@@H](C)[C@@H]2C)NC(=O)[C@H](CC(C)C)N(C)C(=O)[C@H](C)N(C)C(=O)[C@@H](C2[C@@H](C)[C@@H]2C)NC1=O (stereo partly drawn) [MV-A] (cyclo([NMeA][NMeL][X1][NMeA][dNMeA][dL][X2]))
Inhibition (%) ([6]; A549-IP, 0.05 mg/kg): 18.2%
Inhibition (%) ([6]; A549-IP, 0.1 mg/kg): 56.6%
Inhibition (%) ([6]; A549-SC, 0.05 mg/kg): 0%
Inhibition (%) ([6]; A549-SC, 0.1 mg/kg): 36.4%
Inhibition (%) ([7]; HCT116-IP, 0.1 mg/kg): 33.1%
Inhibition (%) ([7]; HCT116-IP, 0.2 mg/kg): 53.3%
Inhibition (%) ([7]; HCT116-IP, 0.8 mg/kg): 65.0%
Inhibition (%) ([7]; HCT116-SC, 0.1 mg/kg): 0%
Inhibition (%) ([7]; HCT116-SC, 0.2 mg/kg): 15.1%
Inhibition (%) ([7]; HCT116-SC, 0.8 mg/kg): 12.7%
Inhibition (%) ([8]; MCF7-IP, 0.05 mg/kg): 65.9%
Inhibition (%) ([8]; MCF7-IP, 0.1 mg/kg): 76.8%
Inhibition (%) ([8]; MCF7-IP, 0.2 mg/kg): 68.3%
Inhibition (%) ([8]; MCF7-IP, 0.4 mg/kg): 66.7%
Inhibition (%) ([8]; MCF7-SC, 0.05 mg/kg): 0%
Inhibition (%) ([8]; MCF7-SC, 0.1 mg/kg): 0%
Inhibition (%) ([8]; MCF7-SC, 0.2 mg/kg): 13.9%
Inhibition (%) ([8]; MCF7-SC, 0.4 mg/kg): 56.0%
Inhibition (%) ([9]; A375-IP, 0.2 mg/kg): 35.3%
Inhibition (%) ([9]; A375-IP, 0.4 mg/kg): 67.4%
Inhibition (%) ([9]; A375-SC, 0.2 mg/kg): 17.2%
Inhibition (%) ([9]; A375-SC, 0.4 mg/kg): 27.8%
Inhibition (%) ([10]; Hela-IP, 0.2 mg/kg): 45.8%
Inhibition (%) ([10]; Hela-IP, 0.4 mg/kg): 82.7%
Inhibition (%) ([10]; Hela-SC, 0.2 mg/kg): 23.2%
Inhibition (%) ([10]; Hela-SC, 0.4 mg/kg): 52.8%
Inhibition of HCT116 tumor growth (excised tumor weights) (HCT116-tumor xenograft; 0.5 mg/kg (low dose)): 31.1%
Inhibition of HCT116 tumor growth (excised tumor weights) (HCT116-tumor xenograft; 1.0 mg/kg (high dose)): 52.8%
Weight loss of mice after the first two treatments (HCT116-tumor xenograft; HCT116 xenograft, 0.5 and 1.0 mg/kg groups): 1 to 2 g
Inhibition of MCF7 tumor growth (excised tumor weights) (MCF7-tumor xenograft; 1.0 mg/kg (low dose)): 48.1%
Inhibition of MCF7 tumor growth (excised tumor weights) (MCF7-tumor xenograft; 2.0 mg/kg (high dose)): 72.6%
Weight loss of mice after the first two treatments (MCF7-tumor xenograft; MCF7 xenograft, 1.0 and 2.0 mg/kg groups): 1 to 2 g
EC50 (3T3-L1 murine adipocytes [11]): 0.3 nM
IC50 (3T3-L1 murine adipocytes [12]): 12.9 nM
IC50 ([4]; read-out: Cell killing activity, IC50 values range over the panel, range over panel of human cancer cell lines): 0.05 to 1.5 nM
Mortality during the treatments [13]: No mice die
Toxicity observed from dissection of the mice [13]: No sign of toxicity
Drop of average weight of mice after the first two treatments ([13]; intravenous, intraperitoneal or oral): 1 to 2 g
